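All cell lines were grown in 96-well plates and treated with compound for 48 hours. TGI marks complete inhibition of growth.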
Key:
Assay in all cases: DTP human tumour cell line panel, 48 h
CCRF-CEM leukemia = test system: CCRF-CEM leukemia
OVCAR-4 ovarian = test system: OVCAR-4 ovarian
UO-31 renal = test system: UO-31 renal
NCI-H460 lung = test system: NCI-H460 lung
NCI-H226 lung = test system: NCI-H226 lung
KM20L2 colon = test system: KM20L2 colon
COLO 205 colon = test system: COLO 205 colon
UACC-62 melanoma = test system: UACC-62 melanoma
LXFL 529 NSCLC = test system: LXFL 529 NSCLC
HCT-116 colon = test system: HCT-116 colon
A549 NSCLC = test system: A549 NSCLC
K-562 leukemia = test system: K-562 leukemia
SF-268 CNS = test system: SF-268 CNS
MOLT-4 leukemia = test system: MOLT-4 leukemia
SF-295 CNS = test system: SF-295 CNS
OVCAR-3 ovarian = test system: OVCAR-3 ovarian
U251 CNS = test system: U251 CNS
A498 renal = test system: A498 renal
TK-10 renal = test system: TK-10 renal
LOX IMVI melanoma = test system: LOX IMVI melanoma
RPMI-8226 leukemia = test system: RPMI-8226 leukemia
DLD-1 colon = test system: DLD-1 colon
OVCAR-8 ovarian = test system: OVCAR-8 ovarian
SN12C renal = test system: SN12C renal
DMS 273 small cell lung = test system: DMS 273 small cell lung
NCI-H522 lung = test system: NCI-H522 lung
SF-539 CNS = test system: SF-539 CNS
SR leukemia = test system: SR leukemia
HL-60(TB) leukemia = test system: HL-60(TB) leukemia
HCT-15 colon = test system: HCT-15 colon
SK-MEL-28 melanoma = test system: SK-MEL-28 melanoma
M19-MEL melanoma = test system: M19-MEL melanoma
UACC-257 melanoma = test system: UACC-257 melanoma
HOP-18 NSCLC = test system: HOP-18 NSCLC
DMS 114 small cell lung = test system: DMS 114 small cell lung
RXF-631 renal = test system: RXF-631 renal
M14 melanoma = test system: M14 melanoma
786-0 renal = test system: 786-0 renal
SNB-19 CNS = test system: SNB-19 CNS
SK-OV-3 ovarian = test system: SK-OV-3 ovarian
HOP-62 NSCLC = test system: HOP-62 NSCLC
IGROV1 ovarian = test system: IGROV1 ovarian
KM12 colon = test system: KM12 colon
HCC-2998 colon = test system: HCC-2998 colon
SK-MEL-5 melanoma = test system: SK-MEL-5 melanoma
SW-620 colon = test system: SW-620 colon
HOP-92 NSCLC = test system: HOP-92 NSCLC
CAKI-1 renal = test system: CAKI-1 renal
SK-MEL-2 melanoma = test system: SK-MEL-2 melanoma
ACHN renal = test system: ACHN renal
MALME-3M melanoma = test system: MALME-3M melanoma
SNB-75 CNS = test system: SNB-75 CNS
HT29 colon = test system: HT29 colon
NCI-H23 lung = test system: NCI-H23 lung
OVCAR-5 ovarian = test system: OVCAR-5 ovarian
RXF 393 renal = test system: RXF 393 renal
XF 498 CNS = test system: XF 498 CNS
EKVX NSCLC = test system: EKVX NSCLC
SNB-78 CNS = test system: SNB-78 CNS

Measured: TGI

CC12CC/C(=N/NC(N)=O)C3C1CCCC32
not listed: OVCAR-5 ovarian | RXF 393 renal | XF 498 CNS | EKVX NSCLC | SNB-78 CNS
> 100 µM: all other assays above

O=C1C(Cl)=C(Cl)C(=O)N1c1ccccc1Cl
> 88 µM: MALME-3M melanoma
> 79.4 µM: HOP-92 NSCLC
> 78.5 µM: MOLT-4 leukemia
> 81 µM: K-562 leukemia
> 86.3 µM: LXFL 529 NSCLC
> 60.9 µM: CAKI-1 renal
69.7 µM: SR leukemia
21.7 µM: HL-60(TB) leukemia
19.3 µM: CCRF-CEM leukemia
> 94.7 µM: DLD-1 colon
> 95 µM: SW-620 colon
> 88.4 µM: HCT-15 colon
22.7 µM: NCI-H522 lung
> 88.1 µM: RPMI-8226 leukemia
not listed: RXF-631 renal
> 100 µM: all other assays above
